Source: patent US8354512B2, “Ligand and metal complex” (National Chiao Tung University, priority 2009, dated 2013)
Like-named read-outs stand apart in the source and are kept apart here.

Legend:
HSA = HSA (Homo sapiens, UniProt P02768); conditions: literature values; cited from earlier work
[1] = Water exchange rate and molecular rotational correlation time by 17O-NMR at 9.4 T; assay type: physicochemical; conditions: 298 K
Source text: According to the disclosure of Chem. Rev., 1999, 99, 2293-2352, the relaxivity of the metal complex is affected by the hydration number q and the correlation time τc. The correlation time τc depends on three parameters: (1) molecular rotational correlation time (τR); (2) Electron longitudinal and transverse spin relaxation time (T1e, T2e); and (3) Water residence lifetime (τm) or Water exchange rate (kex), τm^−1=kex. Since Bz-CB-TTDA and CB-TTDA have the same hydration number, comparison between Bz-CB-TTDA and CB-TTDA in relaxivity can be determined by the aforesaid parameters, i.e., the higher the parameters, the higher will be the relaxivity.
Electron longitudinal and transverse spin relaxation time (T1e, T2e) of each test sample of the metal complexes was measured by using ^17O-NMR in a magnetic field of 9.4 T. The water exchange rate at 298 K (Kex^298) and the molecular rotational correlation time at 298 K (τR^298) of each test sample were determined by using three plots of “T1 versus temperature”, “T2 versus temperature” and “chemical shift versus temperature”.

[2] = Kinetic stability in PBS containing Zn2+; assay type: physicochemical; parameters: unit not given here; conditions: 2.5 mM complex, 2.5 mM ZnCl2, PBS pH 7.4, 37±0.1° C., three days, NMR 20 MHz
Method: Kinetic stability is evaluated by testing the stability of the metal complex in an environment containing a poisonous metal ion Zn^2+. The stability is defined as R1^p (t)/R1p (0), in which R1^P (t)=1/T1 (t), T1 is the relaxivity. The higher the R1^P (t)/R1p (0), the higher will be the stability.
2.5 mM of each of [Gd(Bz-CB-TTDA)]^2−−, [Gd(CB-TTDA)]^2− and [Gd(DTPA)]^2− was placed in a phosphate buffer saline (PBS, pH=7.4), followed by adding 2.5 mM of ZnCl2 to obtain a sample. The sample was subjected to reaction at 37±0.1° C. for three days (t=3), after which the relaxivity T1(t) of the sample was determined by using NMR (20 MHz).

[3] = cited from earlier work

Sequence of HSA (P02768 25-609): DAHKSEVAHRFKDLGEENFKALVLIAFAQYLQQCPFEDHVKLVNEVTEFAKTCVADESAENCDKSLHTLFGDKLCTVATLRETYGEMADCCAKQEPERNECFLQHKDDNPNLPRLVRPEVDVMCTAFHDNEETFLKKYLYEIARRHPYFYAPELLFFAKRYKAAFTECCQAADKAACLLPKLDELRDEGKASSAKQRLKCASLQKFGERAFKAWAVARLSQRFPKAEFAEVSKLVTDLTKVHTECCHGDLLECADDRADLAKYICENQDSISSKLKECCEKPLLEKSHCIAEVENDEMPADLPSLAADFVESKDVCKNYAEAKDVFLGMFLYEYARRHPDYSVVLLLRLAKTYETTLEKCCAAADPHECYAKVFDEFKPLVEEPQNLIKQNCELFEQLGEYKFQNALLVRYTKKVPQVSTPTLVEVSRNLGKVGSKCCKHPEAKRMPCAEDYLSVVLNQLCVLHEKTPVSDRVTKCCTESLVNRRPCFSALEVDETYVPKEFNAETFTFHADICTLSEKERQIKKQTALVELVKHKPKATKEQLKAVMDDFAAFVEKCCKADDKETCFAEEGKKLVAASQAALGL

Structure (SMILES)	γ1^b bound relaxivity (HSA)	kex^298 water exchange rate [1]	τR^298 molecular rotational correlation time [1]	R1^p (t)/R1^p (0) [2]	γ1 relaxivity ([3]; pH 7.6 ± 0.1, Am. J. Roentgenol., 1984, 142, 619-624)	γ1 relaxivity ([3]; pH 7.5 ± 0.1, Inorg. Chem., 2005, 44, 382)
O=C(O)CN(CCN(CC(=O)O)CC(=O)O)CCN(CC(=O)O)C(COCc1ccccc1)C(=O)O (stereo not drawn) [[Gd(BOPTA)]^2−]	33.0^a mM^−1s^−1					
O=C([O-])CN(CCN(CC(=O)[O-])CC(=O)[O-])CCN(CC(=O)[O-])CC(=O)[O-].[Gd+3] [[Gd(DTPA)]^2−]		4.1 10^6 s^−1	103 ps	49.79	3.89 ± 0.03^a mM^−1s^−1	
CCOc1ccc(C[C@@H](C(=O)O)N(CCN(CCN(CC(=O)O)CC(=O)O)CC(=O)O)CC(=O)O)cc1 [[Gd(S)-EOB-DTPA]^2−]	44.1^a mM^−1s^−1					
O=C([O-])CN(CCCN(CC(=O)[O-])CC(=O)[O-])CCN(CC(=O)[O-])CC(=O)[O-].[Gd+3] [[Gd(TTDA)]^2−]		146 ± 17.0 10^6 s^−1	104 ± 12.0 ps			3.85 ± 0.03^a mM^−1s^−1
